Source: patent US8367086B1, “Process and product for inhibiting or preventing bacterial infections” (S.S. Steiner, Inc., priority 2004, dated 2013)
Positions of bridges follow the written chain, without caps; N, C: chain ends. Non-standard residues stand in square brackets, D forms with d. Residues, ends and D or L forms follow the SMILES beside them. *: point of attachment. Ileψ(thiazoline)Cys = CC[C@H](C)[C@H](N)C1=N[C@H](C(=O)*)CS1; dOrn = NCCC[C@@H](N)C(=O)O

Tested on: Staphlococcus saprophyticus
Assay: paper disc diffusion susceptibility (Kirby-Bauer) method
Assay type: cell-based
Conditions: for change of zone of inhibition when lupulone was added: Experiment 1, 0.2 μg/ml β-resin versus antibiotic alone; for zone of inhibition, Experiment 1 Control / zone of inhibition, Experiment 2 Control: antibiotic disc alone; for zone of inhibition, Experiment 1 Control / zone of inhibition, Experiment 2 Control / zone of inhibition, Experiment 1 0.2 μg/ml β-resin / zone of inhibition, Experiment 2 0.2 μg/ml β-resin: 24 hours; for zone of inhibition, Experiment 1 0.2 μg/ml β-resin / zone of inhibition, Experiment 2 0.2 μg/ml β-resin: antibiotic disc with 0.2 μg/ml β-resin in the agar
Source text: The first test method to be applied was the paper disc diffusion susceptibility method. In this method a filter paper disc impregnated with a chemical is placed on agar, and the chemical will diffuse from the disc into the agar. If an organism is placed on the agar, it will not grow in the area around the disc if it is susceptible to the chemical. This area of no growth around the disc is known as the zone of inhibition. This disc diffusion method for antibiotic susceptibility is known as the Kirby-Bauer method. In testing the effectiveness of various antibiotics, all factors, e.g., the agar utilized, the depth of the agar, the amount of organism used, and incubation conditions, are maintained constant for the various organisms and antibiotics being tested. […] The size of the zone of inhibition of the particular antimicrobial substance may also be influenced by the diffusion capability of that substance.
In performing the disc diffusion method tests, a bacterial suspension having an inoculum density of approximately 1×10^8 CFU/ml (colony forming units) was added to 10 ml trypticase soy agar at 46° C. It was mixed thoroughly by vortexing and then poured into a plastic Petri dish. After hardening of the agar, filter paper discs (φ7 mm.) made from Whatman filter paper No. 1 that had been impregnated by the manufacturer, Becton Dickinson, Inc., with the suitable antibiotic, were placed on the agar. In this series of tests the ability of each antibiotic per se to control the growth of the bacteria was measured.
Another series of agar containing Petri dishes was then prepared using the same bacteria and density thereof as had been prepared for the prior test series. However, here hop compounds were also present in the agar. The hop extract, either lupulone, humulone or xanthohumol, was dissolved in ethanol. While certain of the hop components are only slightly soluble in water, they are very soluble in ethanol. An ethanol control was prepared in the same way.
The size of the inhibition zones was measured to the nearest mm.
The concentration of β-acid and xanthohumol is set forth in μg/ml. The zone of inhibition was measured in centimeters. […]

| SMILES | change of zone of inhibition when lupulone was added | zone of inhibition, Experiment 1 Control [mm] | zone of inhibition, Experiment 2 Control [mm] | zone of inhibition, Experiment 1 0.2 μg/ml β-resin [mm] | zone of inhibition, Experiment 2 0.2 μg/ml β-resin [mm] |
| --- | --- | --- | --- | --- | --- |
| CC[C@H](C)[C@H](N)C1=N[C@H](C(=O)N[C@@H](CC(C)C)C(=O)N[C@H](CCC(=O)O)C(=O)N[C@H](C(=O)N[C@H]2CCCCNC(=O)[C@H](CC(N)=O)NC(=O)[C@@H](CC(=O)O)NC(=O)[C@H](Cc3cnc[nH]3)NC(=O)[C@@H](Cc3ccccc3)NC(=O)[C@H]([C@@H](C)CC)NC(=O)[C@@H](CCCN)NC2=O)[C@@H](C)CC)CS1 [BACITRACIN, bacitracin] ({Ileψ(thiazoline)Cys}-L[dE]IK[dOrn]I[dF]H[dD]N; lactam 4-C) | remained constant | 0 | 0 | 0 | 0 |
| O=C(N[C@H](CO)[C@H](O)c1ccc([N+](=O)[O-])cc1)C(Cl)Cl [CHLORAMPHENICOL, chloramphenicol] | decline | 29 | 25 | 27 | 25 |
| CC[C@H]1OC(=O)[C@H](C)[C@@H](O[C@H]2C[C@@](C)(OC)[C@@H](O)[C@H](C)O2)[C@H](C)[C@@H](O[C@@H]2O[C@H](C)C[C@H](N(C)C)[C@H]2O)[C@](C)(O)C[C@@H](C)C(=O)[C@H](C)[C@@H](O)[C@]1(C)O [ERYTHROMYCIN, erythromycin] | remained constant | 23 | 23 | 25 | 23 |
| [H]/N=C(/N)N[C@H]1[C@H](O)[C@@H](O)[C@H](O[C@@H]2O[C@@H](C)[C@](O)(C=O)[C@H]2O[C@@H]2O[C@@H](CO)[C@H](O)[C@@H](O)[C@@H]2NC)[C@@H](N/C(N)=N\[H])[C@@H]1O [STREPTOMYCIN, streptomycin] | remained constant | 15 | 15 | 15 | 14 |
